In US8383637B2, “2-amino-quinazoline derivatives useful as inhibitors of β-secretase (BACE)” (Jansssen Pharmaceutica N.V., priority 2004, dated 2013):
Values joined by “and” are separate entries in the source; they are usually repeats but may differ in a detail not shown here. Equal values may be shown once.

Tests used:
Type in all cases: biochemical
[1] = molecular target: T1, β-secretase(BACE) (Homo sapiens, UniProt P56817); experiment: BACE % Inhibition Assay ((Aedens)-[…]-(Dabcyl K-amide) substrate)
T1 construct: purchased Panvera
Protocol: The substrate stock solution was prepared in DMSO as a 10 mg/mL solution. The substrate working solution was prepared by diluting the 10 mg/mL stock solution with substrate assay buffer to a final concentration of 300 μg/mL. The β-secretase (BACE) working solution was prepared by diluting a 0.83 mg/mL BACE stock solution with enzyme assay buffer to a final concentration of 4 μg/mL.
Test compounds were dissolved in DMSO to 10 mM.
The screening procedure for this assay was as follows: 15 μL of BACE working solution was pipetted into each well of a 96-well plate. To each well was then pipetted 2 μL of test compound at the selected concentration. Test compound and BACE were then mixed with a pipettor and incubated for 20 min at room temperature. To each well was then added 10 μL of the substrate working solution. The plates were then incubated for 1 hour at room temperature.
The procedure for the blank was as follows. 15 μL of assay buffer was pipetted into each well to be used as a blank control. To each well was then added 2 μL of vehicle and 10 μL of substrate working solution. The plates were then incubated for 1 hour at room temperature.
The procedure for the positive control was as follows: 15 μl of BACE working solution was pipetted into each well to be used as a positive control. To each well was then pipetted 2 μL of vehicle. Vehicle and BACE were then mixed with a pipettor and incubated for 20 min at room temperature. To each well was then added 10 μL of the substrate working solution. The plates were then incubated for 1 hour at room temperature.
For test compounds, % inhibition was determined at each concentration as follows: […]

[2] = molecular target: T1, β-secretase(BACE); experiment: BACE Assay-1 (MCA-substrate, IC50); details: procedure of Example 158; read-out: IC50 μM (158)
Summary of the method: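 Human BACE (work solution 10 μg/mL) with MCA-peptide substrate (stock 2.0 mg/mL) in 0.05 M citrate buffer, pH 5.0, with PEG8000. Fluorescence read at T0 and T60; compounds tested at multiple concentrations and IC50 calculated from these readings.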

[3] = molecular target: T1, β-secretase(BACE); experiment: BACE Assay-2 (FS1 substrate, IC50 and Ki); details: procedure of Example 159, FS1 substrate; for Ki: read-out: Ki μM (159)
[4] = molecular target: T1, β-secretase(BACE); experiment: BACE FS1% Inhibition Assay; details: FS1 substrate; for inhibition at 10 µM: 10 μM test compound; for inhibition at 0.3 µM: read-out: % Inhibition (FS) 0.3 μM; for inhibition at 1 µM: read-out: % Inhibition (FS) 1 μM
Summary of the method: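 Percent inhibition at each tested concentration, referenced to enzyme-free blank and vehicle-only positive control. Reaction: compound and BACE (4 μg/mL working stock) mixed 20 min at room temperature before FS1 substrate (300 μg/mL working stock), then 1 h at room temperature.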

[5] = 3 μM test compound, % error ±10%
[6] = 10 μM test compound, % error ±10%
[7] = 0.3 μM test compound, % error ±10%
[8] = 1 μM test compound, % error ±10%
[9] = 3 μM test compound, read-out: % Inhibition (FS) 3 μM
[10] = read-out: % Inhibition (FS) 10 μM

T1 sequence (P56817 46-501): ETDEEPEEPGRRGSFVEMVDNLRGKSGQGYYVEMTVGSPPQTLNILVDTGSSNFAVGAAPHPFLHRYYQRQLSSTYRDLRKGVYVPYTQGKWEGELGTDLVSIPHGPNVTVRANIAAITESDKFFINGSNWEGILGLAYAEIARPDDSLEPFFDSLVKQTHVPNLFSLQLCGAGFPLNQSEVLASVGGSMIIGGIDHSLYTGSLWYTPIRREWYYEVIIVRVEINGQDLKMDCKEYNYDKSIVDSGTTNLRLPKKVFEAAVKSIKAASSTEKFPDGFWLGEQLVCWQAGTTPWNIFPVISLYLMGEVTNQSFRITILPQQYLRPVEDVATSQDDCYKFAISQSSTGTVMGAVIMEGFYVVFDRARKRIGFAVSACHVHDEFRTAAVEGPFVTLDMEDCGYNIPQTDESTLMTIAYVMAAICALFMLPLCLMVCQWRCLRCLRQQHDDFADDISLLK

IC50 [2] [µM]	Ki [3]	inhibition at 3 µM [4, 9] [%]	inhibition at 0.3 µM ([4]; 0.3 μM test compound) [%]	inhibition at 1 µM ([4]; 1 μM test compound) [%]	Compound	other results
					CN(C(=O)c1ccc(CN2Cc3cc(Oc4ccccc4)ccc3N=C2N)cc1)C1CCCCC1 [Compound 97]	% Inhibition [1, 5]: <30%; % Inhibition [1, 6]: 53%
					CCN(CC)CCN1Cc2cc(Oc3ccccc3)ccc2N=C1N [Compound 79]	% Inhibition [1, 5]: <30%; % Inhibition [1, 6]: <30%
					CCCC(CCC)C(=O)NCc1cccc(CN2Cc3cc(Oc4ccccc4)ccc3N=C2N)c1 [Compound 338]	% Inhibition [1, 7]: <30%; % Inhibition [1, 8]: <30%; % Inhibition [1, 5]: <30%
					CC(C)(C)C(=O)NCC(C1CCCCC1)N1Cc2cc(Oc3ccccc3)ccc2N=C1N (stereo not drawn) [Compound 317]	% Inhibition [1, 7]: <30%; % Inhibition [1, 8]: 66%; % Inhibition [1, 5]: 107%
					CN(C(=O)C1CCC(CN2Cc3cc(Oc4ccccc4)ccc3N=C2N)CC1)C1CCCCC1 (stereo not drawn) [Compound 100]	% Inhibition [1, 5]: <30%; % Inhibition [1, 6]: <30%
					CN(C(=O)c1cccc(N2Cc3cc(Oc4ccccc4)ccc3N=C2N)c1)C1CCCCC1 [Compound 94]	% Inhibition [1, 5]: <30%; % Inhibition [1, 6]: <30%
					CC(C)(C)OC(=O)N1CCC(N2Cc3cc(Oc4ccccc4)ccc3N=C2N)C1 (stereo not drawn) [Compound 93]	% Inhibition [1, 5]: <30%; % Inhibition [1, 6]: <30%
					CN(C(=O)c1cccc(CN2Cc3cc(Oc4ccccc4)ccc3N=C2N)c1)C1CCCCC1 [Compound 62, 3-(2-Amino-6-phenoxy-4H-quinazolin-3-ylmethyl)-N-cyclohexyl-N-methyl-benzamide]	inhibition at 3 µM [1]: 62%; inhibition at 10 µM [1]: 82%; % Inhibition ([1]; 3 µM): 73%; % Inhibition ([1]; 10 µM): 82%
					CN(C(=O)[C@@H]1CCC[C@@H]1N1Cc2cc(Oc3ccccc3)ccc2N=C1N)C1CCCCC1 [Compound 72]	% Inhibition [1, 5]: <30%; % Inhibition [1, 6]: <30%
					Cc1ccc(S(=O)(=O)NCCN2Cc3cc(Oc4ccccc4)ccc3N=C2N)cc1 [Compound 109]	% Inhibition [1, 5]: <30%; % Inhibition [1, 6]: 58%
0.074	0.22 µM	106			CCCC(CCCC(=O)N(C)C1CCCCC1)N1Cc2cc(Oc3ccccc3)ccc2N=C1N (stereo not drawn) [Compound 90]	inhibition at 10 µM [4, 10]: 124%
0.11	0.1 µM	109	67	96	CN(C(=O)c1cccc(CN2Cc3cc(-c4ccsc4)ccc3N=C2N)c1)C1CCCCC1 [Compound 164]	
0.19	0.11 µM	107	50	93	NC1=Nc2ccc(Oc3ccccc3)cc2CN1CCC(=O)NC1CCCCC1 [Compound 178]	
0.19	0.28 µM	101	< 30	72	COc1cccc(-c2ccc3c(c2)CN(Cc2cccc(C(=O)N(C)C4CCCCC4)c2)C(N)=N3)c1 [Compound 165]	
0.31	0.17 µM	108	51	85	COC1CCCC(C(=O)NCCN2Cc3cc(Oc4ccccc4)ccc3N=C2N)C1 (stereo not drawn) [Compound 219]	
0.014	0.03 µM and 0.05 µM	113	100	112	COc1ccccc1-c1ccc2c(c1)CN(Cc1cccc(C(=O)N(C)C3CCCCC3)c1)C(N)=N2 [Compound 167, 3-[2-Amino-6-(2-methoxy-phenyl)-4H-quinazolin-3-ylmethyl]-N-cyclohexyl-N-methyl-benzamide]	% Inhibition (FS) 0.3 μM ([4]; 0.3 μM test compound, 0.3 µM): 91%; % Inhibition (FS) 1 μM ([4]; 1 μM test compound, 1 µM): 110%; % Inhibition (FS) 3 μM ([4]; 3 μM test compound, 3 µM): 118%

IC50 [2] [µM]	Ki [3]	inhibition at 3 µM [4, 9] [%]	inhibition at 0.3 µM ([4]; 0.3 μM test compound) [%]	inhibition at 1 µM ([4]; 1 μM test compound) [%]	Compound	other results
0.1	0.12 µM	113			CCCC(CCC(=O)NC1CCCCC1)N1Cc2cc(Oc3ccccc3)ccc2N=C1N (stereo not drawn) [Compound 129]	inhibition at 10 µM [4, 10]: 113%
0.1	0.17 µM	115			NC1=Nc2ccc(Oc3ccccc3)cc2CN1CCNC(=O)C12CC3CC(CC(C3)C1)C2 [Compound 131]	inhibition at 10 µM [4, 10]: 130%
0.012	0.017 µM	123	100	112	NC1=Nc2ccc(Oc3ccccc3)cc2CN1[C@@H](CNC(=O)C1CCCCC1)C1CCCCC1 [Compound 485, Cyclohexanecarboxylic acid [2-(2-amino-6-phenoxy-4H-quinazolin-3-yl)-2-(R)-cyclohexyl-ethyl]-amide]	
0.058	0.19 µM	106	48	93	CCCC(CCC)C(=O)NCCN1Cc2cc(Oc3ccccc3)ccc2N=C1N [Compound 183]	
0.54	0.12 µM	102	51	78	COc1ccc(NC(=O)C(C)(C)C)c(-c2ccc3c(c2)CN(Cc2cccc(C(=O)N(C)C4CCCCC4)c2)C(N)=N3)c1 [Compound 160]	
0.078	0.27 µM	106	< 30	62	NC1=Nc2ccc(Oc3ccccc3)cc2CN1CCNC(=O)NC12CC3CC(CC(C3)C1)C2 [Compound 206, 1-Adamantan-1-yl-3-[2-(2-amino-6-phenoxy-4H-quinazolin-3-yl)-ethyl]-urea]	
0.016	0.02 µM	118	94	109	NC1=Nc2ccc(Oc3ccccc3)cc2CN1C(CNC(=O)C1CCCCC1)C1CCCCC1 (stereo not drawn) [Compound 294, Cyclohexanecarboxylic acid [2-(2-amino-6-phenoxy-4H-quinazolin-3-yl)-2-cyclohexyl-ethyl]-amide]	
0.066	0.12 µM	109	< 30	76	CN(C(=O)CCC(c1ccc(Cl)cc1)N1Cc2cc(Oc3ccccc3)ccc2N=C1N)C1CCCCC1 (stereo not drawn) [Compound 297]	
0.089	0.1 µM	110	< 30	86	CN(C(=O)c1cccc(CN2Cc3cc(-c4ccccc4CC#N)ccc3N=C2N)c1)C1CCCCC1 [Compound 325]	
0.25	0.1 µM	106	< 30	75	C[C@H](CNC(=O)C1CCCCC1)N1Cc2cc(Oc3ccccc3)ccc2N=C1N [Compound 495, (R)-Enantiomer of cyclohexanecarboxylic acid [2-(2-amino-6-phenoxy-4H-quinazolin-3-yl)-propyl]-amide]	
0.085	0.07 µM	111	85	106	CN(C(=O)c1cccc(CN2Cc3cc(-c4ccccc4CO)ccc3N=C2N)c1)C1CCCCC1 [Compound 174]	
0.25	0.25 µM	97	< 30	66	CN(C(=O)c1cccc(CN2Cc3cc(-c4c(Cl)cccc4Cl)ccc3N=C2N)c1)C1CCCCC1 [Compound 259]	
0.015	0.11 µM	120	65	96	NC1=Nc2ccc(Oc3ccccc3)cc2CN1CCNC(=O)C1(c2ccc(Cl)cc2)CCCC1 [Compound 196]	
0.21	0.27 µM				CCCN1Cc2cc(Oc3cccc(NC(=O)CCCC(=O)N(C)C4CCCCC4)c3)ccc2N=C1N [Compound 755]	IC50 [3]: 1.9 µM; inhibition at 3 µM ([4]; 3 μM test compound, read-out: % Inhibition (FS)): 59%; inhibition at 10 µM ([4]; read-out: % Inhibition (FS)): 79%
0.058	0.08 µM	109	80	104	CN(C(=O)c1cccc(CN2Cc3cc(-c4ccccc4O)ccc3N=C2N)c1)C1CCCCC1 [Compound 169]	
